We go through 29 compounds from patent US9415055B2, “Cyclic amines” (H. Lundbeck A/S, priority 2012, dated 2016).

Chain of P2X7 receptor (Q99572 whole entry): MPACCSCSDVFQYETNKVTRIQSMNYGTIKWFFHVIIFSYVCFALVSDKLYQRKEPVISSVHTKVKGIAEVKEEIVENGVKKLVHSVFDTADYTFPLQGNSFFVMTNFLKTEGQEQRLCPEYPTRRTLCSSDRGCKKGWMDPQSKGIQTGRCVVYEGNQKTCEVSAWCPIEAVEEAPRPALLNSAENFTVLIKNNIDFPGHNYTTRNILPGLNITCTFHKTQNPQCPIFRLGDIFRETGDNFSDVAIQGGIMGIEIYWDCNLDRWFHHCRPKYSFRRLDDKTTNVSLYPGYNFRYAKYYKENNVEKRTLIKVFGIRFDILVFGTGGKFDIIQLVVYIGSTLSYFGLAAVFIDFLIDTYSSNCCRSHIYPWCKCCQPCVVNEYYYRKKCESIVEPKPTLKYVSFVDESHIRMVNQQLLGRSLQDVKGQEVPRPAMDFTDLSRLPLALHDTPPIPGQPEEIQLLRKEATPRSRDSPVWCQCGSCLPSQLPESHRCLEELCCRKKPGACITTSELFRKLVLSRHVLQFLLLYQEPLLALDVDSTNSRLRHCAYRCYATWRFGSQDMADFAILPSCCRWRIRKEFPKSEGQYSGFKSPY

The experiment has as its target P2X7 receptor (Homo sapiens (Human), UniProt Q99572). As to the kind of experiment: P2X7 FLIPR assay: antagonism of BzATP response in 293 HEK cells stably expressing P2X7 receptor. Particulars: FLIPR fluorescence (Fluo-4), agonist BzATP, 293 HEK cells stably transfected with P2X7 receptor. It is filed as cell-based. In outline:
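Antagonist IC50 derived from FLIPR Tetra Fluo-4 calcium signal evoked by BzATP. Compound pre-incubation was 30 min at room temperature on P2X7-expressing HEK293 cells, seeded 24 h before in low-serum medium and dye-loaded 30 min at 37 °C then 30 min at RT.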
In turn, `CCc1ncc(C(CNC(=O)c2ccccc2Cl)N2CCC(F)(F)CC2)cn1` (single isomer, unassigned; (-)) [(−)2-chloro-N-[2-(4,4-difluoro-1-piperidyl)-2-(2-ethylpyrimi] [(−)2-chloro-N-(2-(4,4-difluoropiperidin-1-yl)-2-(2-ethylpyrimidin-5-yl)ethyl)benzamide] returned an IC50 of 17 nM.

`Cc1ncc(C(CNC(=O)c2cccc(Cl)c2Cl)N2CC(F)(F)C(F)(F)C2)cn1` (centres unmarked) [2,3-dichloro-N-(2-(2-methylpyrimidin-5-yl)-2-(3,3,4,4-tetrafluoropyrrolidin-1-yl)ethyl)benzamide] showed an IC50 of 2.6 nM.

As for `COc1ccccc1C(=O)NCC(c1ccc(C(F)(F)F)nc1)N1CCOCC1` (single isomer, unassigned; (+)) [(+)-2-methoxy-N-(2-morpholino-2-(6-(trifluoromethyl)pyridin-] [(+)2-1\4ethoxy-N-[2-morpholin-4-yl-2-(6-trifluoromethyl-pyridin-3-yl)-ethyl]-benzamide], the IC50 worked out at 98 nM.

As for `Cc1ncc(C(CNC(=O)c2c(Cl)cccc2Cl)N2CCCOCC2)cn1` (centres unmarked) [2,6-dichloro-N-(2-(2-methylpyrimidin-5-yl)-2-(1,4-oxazepan-4-yl)ethyl)benzamide], the IC50 stood at 740 nM.

Take `O=C(NCC(c1cnc(C(F)(F)F)nc1)N1CCC(F)(F)CC1)c1c(F)cc(F)cc1Cl` (single isomer, unassigned; (+)) [(+)2-chloro-N-[2-(4,4-difluoro-1-piperidyl)-2-[2-(trifluorom] [(+)2-chloro-4,6-difluoro-N-(2-(4,4-difluoropiperidin-1-yl)-2-(2-(trifluoromethyl)pyrimidin-5-yl)ethyl)benzamide]: the IC50 is 9.4 nM.

Turning to `O=C(NCC(c1cnc(C2CC2)nc1)N1CCC(F)(F)CC1)c1c(Cl)cccc1Cl` (single isomer, unassigned; (+)) [(+)2,6-dichloro-N-(2-(2-cyclopropylpyrimidin-5-yl)-2-(4,4-difluoropiperidin-1-yl)ethyl)benzamide], the IC50 stood at 5.3 nM.

As to `Cc1ncc(C(CNC(=O)c2cccc(Cl)c2Cl)N2CCOCC2)cn1` (single isomer, unassigned; (-)) [(−)2,3-dichloro-N-[2-(2-methylpyrimidin-5-yl)-2-morpholino-e] [(−)2,3-Dichloro-N-[2-(2-methylpyrimidin-5-yl)-2-morpholino-ethyl]benzamide], the concentration for half-maximal inhibition (IC50) worked out at 27 nM.

For `O=C(NCC(c1cnc(C2CC2)nc1)N1CCC(F)(F)CC1)c1cccc(Cl)c1Cl` (single isomer, unassigned; (+)) [(+)2,3-dichloro-N-[2-(2-cyclopropylpyrimidin-5-yl)-2-(4,4-di] [(+)2,3-dichloro-N-(2-(2-cyclopropylpyrimidin-5-yl)-2-(4,4-difluoropiperidin-1-yl)ethyl)benzamide], the IC50 is 4.3 nM.

The compound `COc1ccc(C(=O)NCC(c2cnc(C(F)(F)F)nc2)N2CCC(F)(F)CC2)c(Cl)c1OC` (single isomer, unassigned; (+)) [(+)2-chloro-N-[2-(4,4-difluoro-1-piperidyl)-2-[2-(trifluorom] [(+)2-chloro-3,4-dimethoxy-N-(2-(4,4-difluoropiperidin-1-yl)-2-(2-(trifluoromethyl)pyrimidin-5-yl)ethyl)benzamide] returned a concentration for half-maximal inhibition (IC50) of 14 nM.

Turning to `Cc1ncc(C(CNC(=O)c2cccc(Cl)c2Cl)N2CCC(F)(F)CC2)cn1` (centres unmarked) [2,3-dichloro-N-[2-(4,4-difluoro-1-piperidyl)-2-(2-methylpyri] [2,3-dichloro-N-(2-(4,4-difluoropiperidin-1-yl)-2-(2-methylpyrimidin-5-yl)ethyl)benzamide], the IC50 is 4.3 nM.

For `O=C(NCC(c1cnc(C(F)(F)F)nc1)N1CCOCC1)c1cccc(C(F)(F)F)c1Cl` (single isomer, unassigned; (-)) [(−)2-chloro-N-[2-morpholino-2-[2-(trifluoromethyl)pyrimidin-] [(−)2-Chloro-N-[2-morpholino-2-[2-(trifluoromethyl)pyrimidin-5-yl]ethyl]-3-(trifluoromethyl)benzamide], the concentration for half-maximal inhibition (IC50) came out at 9.9 nM.

Regarding `Cc1ncc(C(CNC(=O)c2ccccc2Cl)N2CCOCC2)cn1` (single isomer, unassigned; (+)) [(+)2-chloro-N-[2-(2-methylpyrimidin-5-yl)-2-morpholino-ethyl] [(+)2-chloro-N-(2-(2-methylpyrimidin-5-yl)-2-morpholinoethyl)benzamide], the IC50 was 630 nM.

In turn, `O=C(NCC(c1ccc(C(F)F)nc1)N1CCC(F)(F)CC1)c1cccc(Cl)c1Cl` (single isomer, unassigned; (+)) [(+)2,3-dichloro-N-[2-[6-(difluoromethyl)-3-pyridyl]-2-(4,4-d] [(+)2,3-dichloro-N-(2-(2-(difluoromethyl)pyridin-5-yl)-2-(4,4-difluoropiperidin-1-yl)ethyl)benzamide] returned an IC50 of 2.4 nM.

On to `Cc1ncc(C(CNC(=O)c2c(Cl)cccc2Cl)N2CCC(F)CC2)cn1` (single isomer, unassigned; (+)) [(+)2,6-dichloro-N-[2-(4-fluoro-1-piperidyl)-2-(2-methylpyrim] [(+)2,6-dichloro-N-(2-(4-fluoropiperidin-1-yl)-2-(2-methylpyrimidin-5-yl)ethyl)benzamide], for which the concentration for half-maximal inhibition (IC50) came out at 9.6 nM.

As for `Cc1ncc(C(CNC(=O)c2cccc(OC(F)(F)F)c2Cl)N2CCC(F)(F)CC2)cn1` (single isomer, unassigned; (-)) [(−)2-chloro-N-[2-(4,4-difluoro-1-piperidyl)-2-(2-methylpyrim] [(−)2-chloro-N-(2-(4,4-difluoropiperidin-1-yl)-2-(2-methylpyrimidin-5-yl)ethyl)-3-(trifluoromethoxy)benzamide], the 50% inhibitory concentration (IC50) amounted to 40 nM.

Compound `O=C(NCC(c1ccc(C(F)(F)F)nc1)N1CCC(F)(F)CC1)c1c(F)cccc1Cl` (single isomer, unassigned; (+)) [(+)2-chloro-6-fluoro-N-(2-(4,4-difluoropiperidin-1-yl)-2-(2-(trifluoromethyl)pyridin-5-yl)ethyl)benzamide] returned an IC50 of 0.62 nM.

With `O=C(NCC(c1cnc(C(F)(F)F)nc1)N1CCOCC1)c1cccc(Cl)c1Cl` (single isomer, unassigned; (+)) [(+)2,3-dichloro-N-[2-morpholino-2-[2-(trifluoromethyl)pyrimi] [(+)2,3-Dichloro-N-[2-morpholino-2-[2-(trifluoromethyl)pyrimidin-5-yl]ethyl]benzamide], the IC50 turned out to be 4.8 nM.

Consider `Cc1ncc(C(CNC(=O)c2ccccc2Cl)N2CCCOCC2)cn1` (centres unmarked) [2-chloro-N-(2-(2-methylpyrimidin-5-yl)-2-(1,4-oxazepan-4-yl)ethyl)benzamide], for which the IC50 was found to be 680 nM.

On to `Cc1ncc(C(CNC(=O)c2ccc(Cl)cc2Cl)N2CCC(F)(F)CC2)cn1` (centres unmarked) [2,4-dichloro-N-(2-(4,4-difluoropiperidin-1-yl)-2-(2-methylpyrimidin-5-yl)ethyl)benzamide], for which the half-maximal inhibitory concentration (IC50) amounted to 44 nM.

Take `Cc1ncc(C(CNC(=O)c2cccc(F)c2Cl)N2CCCC(F)(F)C2)cn1` (single isomer, unassigned; (+)) [(+)2-chloro-N-[2-(3,3-difluoro-1-piperidyl)-2-(2-methylpyrim] [(+)2-chloro-3-fluoro-N-(2-(3,3-difluoropiperidin-1-yl)-2-(2-methylpyrimidin-5-yl)ethyl)benzamide]: the IC50 came to 100 nM.

Consider `O=C(NCC(c1ccc(F)cc1)N1CCC(F)(F)CC1)c1cccc(Cl)c1Cl` (centres unmarked) [2,3-Dichloro-N-[2-(4,4-difluoro-piperidin-1-yl)-2-(4-fluoro-phenyl)-ethyl]-benzamide], for which the IC50 was determined as 0.33 nM.

`N#Cc1ccc(Cl)c(C(=O)NCC(c2ccc(Cl)cc2)N2CCOCC2)c1` (single isomer, unassigned; (+)) [(+)2-chloro-N-[2-(4-chlorophenyl)-2-morpholino-ethyl]-5-cyan] [(+)2-chloro-N-(2-(4-chlorophenyl)-2-morpholinoethyl)-5-cyanobenzamide] had a concentration for half-maximal inhibition (IC50) of 23 nM.

As to `Cc1ccc(C(CNC(=O)c2cc(C)ccc2Cl)N2CCOCC2)cc1` (centres unmarked) [2-Chloro-5-methyl-N-(2-morpholin-4-yl-2-p-tolyl-ethyl)-benzamide], the IC50 is 38 nM.

Take `O=C(NCC(c1ccc(C(F)(F)F)nc1)N1CCOCC1)c1cccc(Cl)c1Cl` (single isomer, unassigned; (-)) [(−)2,3-dichloro-N-[2-morpholino-2-[6-(trifluoromethyl)-3-pyr] [(−)2,3-Dichloro-N-[2-morpholino-2-[6-(trifluoromethyl)-3-pyridyl]ethyl]benzamide]: the IC50 worked out at 2 nM.

Compound `Cn1cc(C(CNC(=O)c2cc(F)cc(Cl)c2Cl)N2CCC(F)(F)CC2)cn1` (single isomer, unassigned; (-)) [(−)2,3-dichloro-N-[2-(4,4-difluoro-1-piperidyl)-2-(1-methylp] [(−)2,3-dichloro-5-fluoro-N-(2-(4,4-difluoropiperidin-1-yl)-2-(1-methyl-1H-pyrazol-4-yl)ethyl)benzamide] gave an IC50 of 26 nM.

In the case of `Cc1cccc(C(=O)NCC(c2ccc(Cl)cc2)N2CCC(F)(F)CC2)c1C` (centres unmarked) [N-[2-(4-Chloro-phenyl)-2-(4,4-difluoro-piperidin-1-yl)-ethyl]-2,3-dimethyl-benzamide], the half-maximal inhibitory concentration (IC50) is 3.6 nM.

As for `O=C(NCC(c1ccc(C(F)(F)F)nc1)N1CCOCC1)c1cccc(C(F)(F)F)c1Cl` (single isomer, unassigned; (+)) [(+)2-chloro-N-[2-morpholino-2-[6-(trifluoromethyl)-3-pyridyl] [(+)2-Chloro-N-[2-morpholino-2-[6-(trifluoromethyl)-3-pyridyl]ethyl]-3-(trifluoromethyl)benzamide], the half-inhibitory concentration (IC50) is 24 nM.

`O=C(NCC(c1ccc(C2CC2)nc1)N1CCOCC1)c1cccc(Cl)c1Cl` (centres unmarked) [2,3-Dichloro-N-[2-(6-cyclopropyl-pyridin-3-yl)-2-morpholin-4-yl-ethyl]-benzamide] had an IC50 of 8.2 nM.

`Cc1ncc(C(CNC(=O)c2ccc(Cl)cc2Cl)N2CCC(=O)CC2)cn1` (centres unmarked) [2,4-dichloro-N-(2-(2-methylpyrimidin-5-yl)-2-(-1-yl)ethyl)benzamide] registered an IC50 of 970 nM.

What is called IC50 is the concentration that gives 50% inhibition.
